Consider 25 compounds from patent publication US12043632B2, “6-heteroaryloxy benzimidazoles and azabenzimidazoles as JAK2 inhibitors” (Ajax Therapeutics, Inc., priority 2020, dated 2024).

The target of this assay is T1, JAK2 (JH1domain-catalytic, Y1007F,Y1008F) kinase (Homo sapiens, UniProt O60674, Y1007F/Y1008F).
T1 construct: JAK2 (JH1domain-catalytic, Y1007F,Y1008F) kinase was expressed as N-terminal fusion; made in house; host or cells: transiently transfected HEK293 cells
T1 sequence (O60674 849-1124 Y1007F/Y1008F limits assumed): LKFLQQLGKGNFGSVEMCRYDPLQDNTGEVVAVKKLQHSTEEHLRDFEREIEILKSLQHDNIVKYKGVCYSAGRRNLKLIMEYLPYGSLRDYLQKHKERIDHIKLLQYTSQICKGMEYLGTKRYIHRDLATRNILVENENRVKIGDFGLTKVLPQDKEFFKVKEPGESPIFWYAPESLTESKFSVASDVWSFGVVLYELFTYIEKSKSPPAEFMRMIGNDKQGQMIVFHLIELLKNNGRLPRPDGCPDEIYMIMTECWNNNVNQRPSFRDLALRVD
The assay can be described thus: JAK2 JH1 Domain Binding Assay. Particulars: qPCR readout.
As a reminder, the Kd is the free concentration of one partner at which half of the binding sites on the other are occupied at equilibrium, for simple one-to-one binding. As to `CN1CC(Oc2cc(Nc3nc4ncc(Oc5cnn6ccncc56)c(Cl)c4n3C)cc(C(F)(F)F)c2)C1` [Example I-218, 7-chloro-1-methyl-N-(3-((1-methylazetidin-3-yl)oxy)-5-(trifluoromethyl)phenyl)-6-(pyrazolo[1,5-a]pyrazin-3-yloxy)-1H-imidazo[4,5-b]pyridin-2-amine], the Kd was under 10 nM. The same measure for `CNc1nccn2ncc(Oc3cnc4nc(Nc5cc(-n6cnc(C)c6)cc(C(F)(F)F)c5)n(C)c4c3Cl)c12` [Example I-219, 7-chloro-1-methyl-N-(3-(4-methyl-1H-imidazol-1-yl)-5-(trifluoromethyl)phenyl)-6-((4-(methylamino)pyrazolo[1,5-a]pyrazin-3-yl)oxy)-1H-imidazo[4,5-b]pyridin-2-amine]: 10 to 50 nM; for `CNc1nccn2ncc(Oc3cnc4nc(Nc5cc(N6CCN(C)CC6)cc(C(F)(F)F)c5)n(C)c4c3Cl)c12` [Example I-220, 7-chloro-1-methyl-6-((4-(methylamino)pyrazolo[1,5-a]pyrazin-3-yl)oxy)-N-(3-(4-methylpiperazin-1-yl)-5-(trifluoromethyl)phenyl)-1H-imidazo[4,5-b]pyridin-2-amine]: 10 to 50 nM; for `CNc1nccn2ncc(Oc3cnc4nc(Nc5cc(C(F)(F)F)cn(C)c5=O)n(C)c4c3)c12` [Example I-221, 1-methyl-3-((1-methyl-6-((4-(methylamino)pyrazolo[1,5-a]pyrazin-3-yl)oxy)-1H-imidazo[4,5-b]pyridin-2-yl)amino)-5-(trifluoromethyl)pyridin-2(1H)-one]: 10 to 50 nM. The same measure for `CNc1nccn2ncc(Oc3cnc4nc(Oc5cc(C6CC6)cn(C(C)C)c5=O)n(C)c4c3Cl)c12` [Example I-222]: 10 to 50 nM; for `CNc1nccn2ncc(Oc3cnc4nc(Nc5cc(C(F)(F)F)c[nH]c5=O)n(C)c4c3Cl)c12` [Example I-223, 3-((7-chloro-1-methyl-6-((4-(methylamino)pyrazolo[1,5-a]pyrazin-3-yl)oxy)-1H-imidazo[4,5-b]pyridin-2-yl)amino)-5-(trifluoromethyl)pyridin-2(1H)-one]: under 10 nM. The same measure for `COc1nccn2ncc(Oc3cnc4nc(Nc5cc(C(F)(F)F)cn(C)c5=O)n(C)c4c3Cl)c12` [Example I-224, 3-((7-chloro-6-((4-methoxypyrazolo[1,5-a]pyrazin-3-yl)oxy)-1-methyl-1H-imidazo[4,5-b]pyridin-2-yl)amino)-1-methyl-5-(trifluoromethyl)pyridin-2(1H)-one]: under 10 nM. `Cn1cc(C(F)(F)F)cc(Nc2nc3ncc(Oc4cnn5ccnc(N[C@H]6CCOC6)c45)c(Cl)c3n2C)c1=O` [Example I-225, (S)-3-((7-chloro-1-methyl-6-((4-((tetrahydrofuran-3-yl)amino)pyrazolo[1,5-a]pyrazin-3-yl)oxy)-1H-imidazo[4,5-b]pyridin-2-yl)amino)-1-methyl-5-(trifluoromethyl)pyridin-2(1H)-one] came in with a Kd of under 10 nM. The same measure for `CNc1nccn2ncc(Oc3cnc4nc(Nc5cc(C(=O)N(C)C)c(F)c(C(F)(F)F)c5)n(C)c4c3Cl)c12` [Example I-226, 5-((7-chloro-1-methyl-6-((4-(methylamino)pyrazolo[1,5-a]pyrazin-3-yl)oxy)-1H-imidazo[4,5-b]pyridin-2-yl)amino)-2-fluoro-N,N-dimethyl-3-(trifluoromethyl)benzamide]: 10 to 50 nM; for `CNc1nccn2ncc(Oc3cnc4nc(Nc5cc(OC6CCN(C)CC6)cc(C(F)(F)F)c5)n(C)c4c3Cl)c12` [Example I-227, 7-chloro-1-methyl-6-((4-(methylamino)pyrazolo[1,5-a]pyrazin-3-yl)oxy)-N-(3-((1-methylpiperidin-4-yl)oxy)-5-(trifluoromethyl)phenyl)-1H-imidazo[4,5-b]pyridin-2-amine]: 10 to 50 nM. `CNc1nccn2ncc(Oc3cnc4nc(Nc5cc(O[C@H]6CCN(C)C6)cc(C(F)(F)F)c5)n(C)c4c3Cl)c12` [Example I-228, (S)-7-chloro-1-methyl-6-((4-(methylamino)pyrazolo[1,5-a]pyrazin-3-yl)oxy)-N-(3-((1-methylpyrrolidin-3-yl)oxy)-5-(trifluoromethyl)phenyl)-1H-imidazo[4,5-b]pyridin-2-amine] had a Kd of 10 to 50 nM. The same measure for `CNc1nccn2ncc(Oc3cnc4nc(Nc5cc(O[C@@H]6CCN(C)C6)cc(C(F)(F)F)c5)n(C)c4c3Cl)c12` [Example I-229, (R)-7-chloro-1-methyl-6-((4-(methylamino)pyrazolo[1,5-a]pyrazin-3-yl)oxy)-N-(3-((1-methylpyrrolidin-3-yl)oxy)-5-(trifluoromethyl)phenyl)-1H-imidazo[4,5-b]pyridin-2-amine]: 10 to 50 nM; for `CCn1c(C(C)(C)C)ncc(Nc2nc3ncc(Oc4cnn5ccnc(NC)c45)c(Cl)c3n2C)c1=O` [Example I-230, 2-(tert-butyl)-5-((7-chloro-1-methyl-6-((4-(methylamino)pyrazolo[1,5-a]pyrazin-3-yl)oxy)-1H-imidazo[4,5-b]pyridin-2-yl)amino)-3-ethylpyrimidin-4(3H)-one]: 50 to 1000 nM; for `Cc1nc(Nc2nc3ncc(Oc4cnn5ccncc45)c(Cl)c3n2C)nc(C)c1C1CC1` [Example I-231, 7-chloro-N-(5-cyclopropyl-4,6-dimethylpyrimidin-2-yl)-1-methyl-6-(pyrazolo[1,5-a]pyrazin-3-yloxy)-1H-imidazo[4,5-b]pyridin-2-amine]: under 10 nM. The same measure for `Cn1c(Nc2nn3c(c2F)COC(C)(C)C3)nc2ncc(Oc3cnn4ccncc34)c(Cl)c21` [Example I-232, N-(7-chloro-1-methyl-6-(pyrazolo[1,5-a]pyrazin-3-yloxy)-1H-imidazo[4,5-b]pyridin-2-yl)-3-fluoro-6,6-dimethyl-6,7-dihydro-4H-pyrazolo[5,1-c][1,4]oxazin-2-amine]: under 10 nM. For the compound `CNc1nccn2ncc(Oc3cnc4nc(Nc5cc(C(F)(F)F)c(C#N)n(C)c5=O)n(C)c4c3Cl)c12` [Example I-233, 5-((7-chloro-1-methyl-6-((4-(methylamino)pyrazolo[1,5-a]pyrazin-3-yl)oxy)-1H-imidazo[4,5-b]pyridin-2-yl)amino)-1-methyl-6-oxo-3-(trifluoromethyl)-1,6-dihydropyridine-2-carbonitrile], the Kd was 50 to 1000 nM.

Consider `CNc1nccn2ncc(Oc3cnc4nc(Nc5cc6c(c(C(F)(F)F)c5)C(C)(C)N(C)C6=O)n(C)c4c3Cl)c12` [Example I-234, 6-((7-chloro-1-methyl-6-((4-(methylamino)pyrazolo[1,5-a]pyrazin-3-yl)oxy)-1H-imidazo[4,5-b]pyridin-2-yl)amino)-2,3,3-trimethyl-4-(trifluoromethyl)isoindolin-1-one], for which the Kd is 10 to 50 nM.

In turn, `CNc1nccn2ncc(Oc3cnc4nc(Nc5cc(C(F)(F)F)c(CN(C)C)cc5F)n(C)c4c3Cl)c12` [Example I-235, 7-chloro-N-(4-((dimethylamino)methyl)-2-fluoro-5-(trifluoromethyl)phenyl)-1-methyl-6-((4-(methylamino)pyrazolo[1,5-a]pyrazin-3-yl)oxy)-1H-imidazo[4,5-b]pyridin-2-amine] gave a Kd of 10 to 50 nM. The same measure for `CNc1nccn2ncc(Oc3cnc4nc(Nc5cc(C(F)(F)F)n(C6CC7(COC7)C6)n5)n(C)c4c3Cl)c12` [Example I-236, N-(1-(2-oxaspiro[3.3]heptan-6-yl)-5-(trifluoromethyl)-1H-pyrazol-3-yl)-7-chloro-1-methyl-6-((4-(methylamino)pyrazolo[1,5-a]pyrazin-3-yl)oxy)-1H-imidazo[4,5-b]pyridin-2-amine]: under 10 nM. To `Cn1c(Nc2cc(N3CCC(O)CC3)cc(C(F)(F)F)c2)nc2ncc(Oc3cnn4ccncc34)c(Cl)c21` [Example I-237, 1-(3-((7-chloro-1-methyl-6-(pyrazolo[1,5-a]pyrazin-3-yloxy)-1H-imidazo[4,5-b]pyridin-2-yl)amino)-5-(trifluoromethyl)phenyl)piperidin-4-ol] belongs 10 to 50 nM. The same measure for `Cn1c(Nc2cc(N3CC[C@@H](O)C3)cc(C(F)(F)F)c2)nc2ncc(Oc3cnn4ccncc34)c(Cl)c21` [Example I-238, (R)-1-(3-((7-chloro-1-methyl-6-(pyrazolo[1,5-a]pyrazin-3-yloxy)-1H-imidazo[4,5-b]pyridin-2-yl)amino)-5-(trifluoromethyl)phenyl)pyrrolidin-3-ol]: under 10 nM; for `CNc1nccn2ncc(Oc3cnc4nc(Nc5cc6c(c(C(F)(F)F)c5)C(C)(C)N(C)C6=O)n(C)c4c3C#N)c12` [Example I-240, 1-methyl-6-((4-(methylamino)pyrazolo[1,5-a]pyrazin-3-yl)oxy)-2-((1,1,2-trimethyl-3-oxo-7-(trifluoromethyl)isoindolin-5-yl)amino)-1H-imidazo[4,5-b]pyridine-7-carbonitrile]: 50 to 1000 nM; for `CNc1nccn2ncc(Oc3cnc4nc(Nc5cc(OC[C@@H]6CCCN6C)cc(C(F)(F)F)c5)n(C)c4c3Cl)c12` [Example I-241, (S)-7-chloro-1-methyl-6-((4-(methylamino)pyrazolo[1,5-a]pyrazin-3-yl)oxy)-N-(3-((1-methylpyrrolidin-2-yl)methoxy)-5-(trifluoromethyl)phenyl)-1H-imidazo[4,5-b]pyridin-2-amine]: under 10 nM. Compound `CNc1nccn2ncc(Oc3cnc4nc(Nc5cc(OC[C@H]6CCCN6C)cc(C(F)(F)F)c5)n(C)c4c3Cl)c12` [Example I-242, (R)-7-chloro-1-methyl-6-((4-(methylamino)pyrazolo[1,5-a]pyrazin-3-yl)oxy)-N-(3-((1-methylpyrrolidin-2-yl)methoxy)-5-(trifluoromethyl)phenyl)-1H-imidazo[4,5-b]pyridin-2-amine] registered a Kd of under 10 nM. The same measure for `CN1CCC[C@H]1COc1cc(Nc2nc3ncc(Oc4cnn5ccncc45)c(Cl)c3n2C)cc(C(F)(F)F)c1` [Example I-243, (S)-7-chloro-1-methyl-N-(3-((1-methylpyrrolidin-2-yl)methoxy)-5-(trifluoromethyl)phenyl)-6-(pyrazolo[1,5-a]pyrazin-3-yloxy)-1H-imidazo[4,5-b]pyridin-2-amine]: under 10 nM.
